Values of other authors as cited in US8592402B2, “Compounds as lysophosphatidic acid receptor antagonists” (Amira Pharmaceuticals, Inc., priority 2009, dated 2013).

Key:
[1] = test system: pancreatic cancer cell lines; conditions: in response to LPA and peritoneal fluid (ascites) from pancreatic cancer patients
[2] = test system: human foetal lung fibroblasts
UUO mice = conditions: compared with LPA1 (−/−) mice
[3] = test system: mouse epithelial renal cell line, MCT; conditions: LPA treatment of MCT cells, co-treatment
[4] = test system: highly peritoneal metastatic pancreatic cancer cell line; conditions: LPA-induced and ascites-induced
nerve-injured mice = conditions: pretreatment

Row | Compound | in vitro migration [1] | fibroblast chemotactic activity ([2]; bronchoalveolar lavage samples of human subjects with IPF) | chemotaxis of human foetal lung fibroblasts ([2]; induced by BAL obtained from IPF patients) | development of renal fibrosis (UUO mice) | induction of CTGF expression [3] | invasion activity [4] | allodynia and hyperalgesia (nerve-injured mice)
1 | Cc1noc(-c2ccc(CSCCC(=O)O)cc2)c1NC(=O)OC(C)c1ccccc1Cl (stereo not shown) [Ki16425] | effectively blocked | inhibited | blocked | closely resembled the LPA1 (−/−) mice | almost completely suppressed | blocked | 
2 | C[C@@H](N)[C@H]1CC[C@H](C(=O)Nc2ccncc2)CC1 [Compound Y-27632] |  |  |  |  |  |  | completely abolished
